This passage reports IC50 results from US20240228482A1, “COMPOUNDS, COMPOSITIONS AND METHODS OF TREATING CANCER” (HOTSPOT THERAPEUTICS, INC., priority 2021, published 2024).

SMILES strings stand for the structures.

In the experiment the target is T1, CBL-B (Homo sapiens, UniProt Q13191).
T1 construct: GST
T1 sequence (Q13191 whole entry): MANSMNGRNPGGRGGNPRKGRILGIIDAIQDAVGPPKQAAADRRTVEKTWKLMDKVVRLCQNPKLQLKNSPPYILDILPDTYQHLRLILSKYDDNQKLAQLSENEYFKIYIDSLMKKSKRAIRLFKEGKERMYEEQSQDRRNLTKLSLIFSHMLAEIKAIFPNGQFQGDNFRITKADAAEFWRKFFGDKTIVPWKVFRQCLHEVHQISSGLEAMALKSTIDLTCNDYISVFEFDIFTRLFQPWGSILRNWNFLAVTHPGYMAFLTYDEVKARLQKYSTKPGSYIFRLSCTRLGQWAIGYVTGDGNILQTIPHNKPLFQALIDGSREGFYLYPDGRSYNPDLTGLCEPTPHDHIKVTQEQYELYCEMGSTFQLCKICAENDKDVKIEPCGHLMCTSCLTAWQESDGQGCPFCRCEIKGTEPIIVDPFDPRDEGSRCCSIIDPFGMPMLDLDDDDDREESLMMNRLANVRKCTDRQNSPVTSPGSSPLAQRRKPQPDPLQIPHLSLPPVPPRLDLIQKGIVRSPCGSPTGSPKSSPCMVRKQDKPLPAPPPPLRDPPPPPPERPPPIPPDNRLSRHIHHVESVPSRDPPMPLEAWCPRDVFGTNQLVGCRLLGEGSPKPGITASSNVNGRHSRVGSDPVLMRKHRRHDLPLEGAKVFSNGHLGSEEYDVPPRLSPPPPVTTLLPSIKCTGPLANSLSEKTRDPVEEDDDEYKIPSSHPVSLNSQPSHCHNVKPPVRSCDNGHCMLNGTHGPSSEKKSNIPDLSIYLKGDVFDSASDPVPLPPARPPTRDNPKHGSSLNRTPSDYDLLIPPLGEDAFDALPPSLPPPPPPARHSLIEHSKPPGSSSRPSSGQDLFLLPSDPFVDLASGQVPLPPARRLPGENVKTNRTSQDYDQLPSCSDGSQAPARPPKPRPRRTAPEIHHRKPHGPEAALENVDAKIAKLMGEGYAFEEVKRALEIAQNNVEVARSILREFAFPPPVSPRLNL
Briefly: CBL-B TR-FRET IC50 screening (E1/E2 ubiquitination, Biotin-Ubiquitin, Anti GST-Tb donor / Streptavidin-d2 acceptor). The format is biochemical. The note with it: CBL-B 10 nM final; 11-point titration from 100 uM; binned A-F; read-out: CBL-B TR-FRET activity IC50. Background: Time-resolved FRET reads energy transfer from a long-lived donor to a nearby acceptor.
On to `Cn1cnnc1C[C@H]1CCc2c1cccc2-n1cc2c(C(F)(F)F)cccn2c1=O` (single isomer, unassigned) [Compound 16], for which the IC50 – broadly, the concentration needed to halve the response being measured – was over 10000 nM.

Take `C[C@@H](c1cc(C(F)(F)F)c2cn(-c3cccc(C4(Cc5nncn5C)COC4)c3)c(=O)n2c1)N1CC2CC2C1` (single isomer, unassigned) [Compound 32]: the IC50 is under 100 nM.

On to `Cn1cnnc1[C@H](F)C1(c2cccc(-n3cc4c(C(F)(F)F)cc(CN5CCC(F)CC5)cn4c3=O)c2)COC1` (single isomer, unassigned) [Compound 45], for which the IC50 is under 100 nM.

Turning to `C[C@H]1CCCN(Cc2cc(C(F)(F)F)c3cn(-c4cccc([C@]5(c6nncn6C)C[C@@H](C)C5)c4)c(=O)n3c2)C1` (single isomer, unassigned) [Compound 59], the IC50 was under 100 nM.

`C[C@H]1CCCN(Cc2cc(C(F)(F)F)c3cn(-c4cccc([C@]5(c6nncn6C)C[C@@H](C)C5)c4)c(=O)n3c2)C1` (single isomer, unassigned) [Compound 60]: the IC50 was under 100 nM.

Turning to `Cn1cnnc1CC1(c2cccc(-n3cc4c(Cl)cc(CN5CCC6(CC6)C5)cn4c3=O)c2)COC1` (single isomer, unassigned) [Compound 67], the IC50 is under 100 nM.

For the molecule `C=C(C)C[C@@H](c1cccc(-n2cc3c(C(F)(F)F)cc(CN4CCC[C@H](C)C4)cn3c2=O)c1)c1nncn1C` (single isomer, unassigned) [Compound 68], the IC50 was under 100 nM.

In the case of `Cn1cnnc1CC1(c2cccc(-n3cc4c(C(F)(F)F)cc(CO)cn4c3=O)c2)COC1` (single isomer, unassigned) [Compound 81], the IC50 was in the range of 301 to 1000 nM.

For the molecule `CN1CCC(c2cc(C(F)(F)F)c3cn(-c4cccc(C5(Cc6nncn6C)COC5)c4)c(=O)n3c2)CC1` (single isomer, unassigned) [Compound 82], the IC50 was under 100 nM.

Regarding `CC(c1cc(C(F)(F)F)c2cn(-c3cccc(C4(Cc5nncn5C(F)F)COC4)c3)c(=O)n2c1)N1CCC(F)CC1` (single isomer, unassigned) [Compound 96], the concentration for half-maximal inhibition (IC50) is under 100 nM.

As for `CC(c1cc(C(F)(F)F)c2cn(-c3cccc(C4(Cc5nncn5C(F)F)COC4)c3)c(=O)n2c1)N1CCC(F)CC1` (single isomer, unassigned) [Compound 97], the IC50 is under 100 nM.

For the molecule `CC1CN(Cc2cc(C(F)(F)F)c3cn(-c4cccc([C@]5(Cc6nncn6C)C[C@@H](C#N)C5)c4)c(=O)n3c2)CCC1(F)F` (single isomer, unassigned) [Compound 99], the IC50 was under 100 nM.

As to `CC1CN(Cc2cc(C(F)(F)F)c3cn(-c4cccc([C@]5(Cc6nncn6C)C[C@@H](C#N)C5)c4)c(=O)n3c2)CCC1(F)F` (single isomer, unassigned) [Compound 100], the IC50 is under 100 nM.

`CC(c1cc(C(F)(F)F)c2cn(-c3cccc(C4(Cc5nncn5C)COC4)c3)c(=O)n2c1)N1CCC[C@H](C)C1` (single isomer, unassigned) [Compound 119]: the IC50 was under 100 nM.

As for `CC(c1cc(C(F)(F)F)c2cn(-c3cccc(C4(Cc5nncn5C)COC4)c3)c(=O)n2c1)N1CCC[C@H](C)C1` (single isomer, unassigned) [Compound 120], the IC50 was under 100 nM.

Turning to `C[C@H]1CCCN(Cc2cc(C(F)(F)F)c3cn(-c4cccc([C@@H](c5nncn5C)C5COC5)c4)c(=O)n3c2)C1` (single isomer, unassigned) [Compound 134], the IC50 fell in the range of 301 to 1000 nM.

On to `[2H]C([2H])([2H])n1cnnc1[C@@H](c1cccc(-n2cc3c(C(F)(F)F)cc(CN4CCC[C@H](C)C4)cn3c2=O)c1)C1CCC1` (single isomer, unassigned) [Compound 135], for which the IC50 was under 100 nM.

In the case of `[2H]C([2H])([2H])n1cnnc1[C@H](c1cccc(-n2cc3c(C(F)(F)F)cc(CN4CCC[C@H](C)C4)cn3c2=O)c1)C1CCC1` (single isomer, unassigned) [Compound 136], the IC50 is 301 to 1000 nM.

As for `[2H]C([2H])([2H])n1cnnc1[C@@H](c1cccc(-n2cc3c(C(F)(F)F)cc(CN4CCO[C@H](C)C4)cn3c2=O)c1)C1CCC1` (single isomer, unassigned) [Compound 137], the IC50 is under 100 nM.

Take `[2H]C([2H])([2H])n1cnnc1[C@H](c1cccc(-n2cc3c(C(F)(F)F)cc(CN4CCO[C@H](C)C4)cn3c2=O)c1)C1CCC1` (single isomer, unassigned) [Compound 138]: the IC50 lay within 1000 to 3000 nM.

As to `CC1CC(c2cccc(-n3cc4c(C(F)(F)F)cc(Br)cn4c3=O)c2)(c2nncn2C)C1` (single isomer, unassigned) [Compound 150], the IC50 was under 100 nM.

In the case of `CC(C)C[C@H](c1cccc(-n2cc3c(C(F)(F)F)cc(CN4CCC[C@H](C)C4)cn3c2=O)c1)c1nncn1C` (single isomer, unassigned) [Compound 151], the concentration for half-maximal inhibition (IC50) lay within 301 to 1000 nM.

Take `CC(C)C[C@@H](c1cccc(-n2cc3c(C(F)(F)F)cc(CN4CCC[C@H](C)C4)cn3c2=O)c1)c1nncn1C` (single isomer, unassigned) [Compound 152]: the IC50 is over 10000 nM.

`CC1CC(c2cccc(-n3cc4c(C(F)(F)F)cc(Br)cn4c3=O)c2)(c2nncn2C)C1` (single isomer, unassigned) [Compound 154]: the half-inhibitory concentration (IC50) is under 100 nM.

For the molecule `CC(c1cc(C(F)(F)F)c2cn(-c3cccc(C4(Cc5nncn5C)COC4)c3)c(=O)n2c1)N1CCO[C@H](C)C1` (single isomer, unassigned) [Compound 156], the IC50 was under 100 nM.

As to `CC(c1cc(C(F)(F)F)c2cn(-c3cccc(C4(Cc5nncn5C)COC4)c3)c(=O)n2c1)N1CCO[C@H](C)C1` (single isomer, unassigned) [Compound 157], the IC50 is under 100 nM.

Regarding `Cn1cnnc1[C@@H](c1cccc(-n2cc3c(C(F)(F)F)cc(CN4CC[C@H](F)C4)cn3c2=O)c1)C1CCC1` (single isomer, unassigned) [Compound 159], the IC50 was under 100 nM.

For the molecule `Cn1cnnc1[C@@H](c1cccc(-n2cc3c(C(F)(F)F)cc(CN4CCC(C)(F)CC4)cn3c2=O)c1)C1CCC1` (single isomer, unassigned) [Compound 161], the 50% inhibitory concentration (IC50) was under 100 nM.

In the case of `Cn1cnnc1[C@H](c1cccc(-n2cc3c(C(F)(F)F)cc(CN4CCC5(CC5)C4)cn3c2=O)c1)C1CCC1` (single isomer, unassigned) [Compound 162], the IC50 lay in the range of 1000 to 3000 nM.

With `Cn1cnnc1[C@@H](c1cccc(-n2cc3c(C(F)(F)F)cc(CN4CCC5(CC5)C4)cn3c2=O)c1)C1CCC1` (single isomer, unassigned) [Compound 163], the IC50 is under 100 nM.

On to `Cn1cnnc1[C@H](c1cccc(-n2cc3c(C(F)(F)F)cc(CN4CC5(CC5)C4)cn3c2=O)c1)C1CCC1` (single isomer, unassigned) [Compound 164], for which the IC50 lay within 3000 to 10000 nM.

As to `Cn1cnnc1[C@@H](c1cccc(-n2cc3c(C(F)(F)F)cc(CN4CC5(CC5)C4)cn3c2=O)c1)C1CCC1` (single isomer, unassigned) [Compound 165], the IC50 is under 100 nM.

For `CC1CN(Cc2cc(C(F)(F)F)c3cn(-c4cccc([C@@H](c5nncn5C)C5CCC5)c4)c(=O)n3c2)CCC1(F)F` (single isomer, unassigned) [Compound 169], the IC50 lay within 3000 to 10000 nM.

On to `CC1CN(Cc2cc(C(F)(F)F)c3cn(-c4cccc([C@@H](c5nncn5C)C5CCC5)c4)c(=O)n3c2)CCC1(F)F` (single isomer, unassigned) [Compound 170], for which the IC50 was 1000 to 3000 nM.

Turning to `CC1CN(Cc2cc(C(F)(F)F)c3cn(-c4cccc([C@H](c5nncn5C)C5CCC5)c4)c(=O)n3c2)CCC1(F)F` (single isomer, unassigned) [Compound 171], the IC50 is under 100 nM.

In the case of `CC1CN(Cc2cc(C(F)(F)F)c3cn(-c4cccc([C@H](c5nncn5C)C5CCC5)c4)c(=O)n3c2)CCC1(F)F` (single isomer, unassigned) [Compound 172], the IC50 was under 100 nM.

As for `Cn1cnnc1[C@H](c1cccc(-n2cc3c(C(F)(F)F)cc(CN4CC[C@H](C#N)C4)cn3c2=O)c1)C1CCC1` (single isomer, unassigned) [Compound 173], the 50% inhibitory concentration (IC50) fell in the range of 3000 to 10000 nM.

On to `Cn1cnnc1[C@@H](c1cccc(-n2cc3c(C(F)(F)F)cc(CN4CC[C@H](C#N)C4)cn3c2=O)c1)C1CCC1` (single isomer, unassigned) [Compound 174], for which the IC50 was under 100 nM.

Regarding `Cn1cnnc1CC1(c2cccc(-n3cc4c(C(F)(F)F)cc(CN5CCCC(O)CC5)cn4c3=O)c2)COC1` (single isomer, unassigned) [Compound 176], the IC50 is under 100 nM.

As for `Cn1cnnc1CC1(c2cccc(-n3cc4c(C(F)(F)F)cc(CN5CCCC(O)CC5)cn4c3=O)c2)COC1` (single isomer, unassigned) [Compound 177], the IC50 is under 100 nM.

On to `CN1CCCCC1c1cc(C(F)(F)F)c2cn(-c3cccc(C4(Cc5nncn5C)COC4)c3)c(=O)n2c1` (single isomer, unassigned) [Compound 186], for which the IC50 fell in the range of 100 to 300 nM.

As for `CN1CCCCC1c1cc(C(F)(F)F)c2cn(-c3cccc(C4(Cc5nncn5C)COC4)c3)c(=O)n2c1` (single isomer, unassigned) [Compound 187], the IC50 was 100 to 300 nM.

Take `[2H]C([2H])([2H])n1cnnc1C1(c2cccc(-n3cc4c(C(F)(F)F)cc(CN5CCC[C@H](C)C5)cn4c3=O)c2)CC(C)C1` (single isomer, unassigned) [Compound 189]: the IC50 is under 100 nM.

Regarding `CC1CC(c2cccc(-n3cc4c(C(F)(F)F)cc(CN5CCO[C@H](C)C5)cn4c3=O)c2)(c2nncn2C)C1` (single isomer, unassigned) [Compound 190], the IC50 is under 100 nM.

For `CC(c1cc(C(F)(F)F)c2cn(-c3cccc([C@@H](c4nncn4C)C4CCC4)c3)c(=O)n2c1)N1CCC[C@H](C)C1` (single isomer, unassigned) [Compound 191], the IC50 was 301 to 1000 nM.

Regarding `CC(c1cc(C(F)(F)F)c2cn(-c3cccc([C@@H](c4nncn4C)C4CCC4)c3)c(=O)n2c1)N1CCC[C@H](C)C1` (single isomer, unassigned) [Compound 192], the half-maximal inhibitory concentration (IC50) was under 100 nM.

As to `CC(c1cc(C(F)(F)F)c2cn(-c3cccc([C@H](c4nncn4C)C4CCC4)c3)c(=O)n2c1)N1CCC[C@H](C)C1` (single isomer, unassigned) [Compound 193], the 50% inhibitory concentration (IC50) is under 100 nM.
